In US6548042B2, “Bis-phosphonate compounds” (priority 2000, dated 2003):
Values joined by “and” are separate entries in the source; they are usually repeats but may differ in a detail not shown here. Identical values can stand only once.

Assays:
[1] = Biodistribution of i.v. administered radioiodinated compounds in balb/c mice;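 further: healthy mice given radioiodinated bisphosphonic acids, with randomly chosen groups of three animals per time point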
Procedure: (§2) Mice. Samples of 100 μl containing 50,100, 400, 140 or 45 KBq of 31a, 34a, 46a, 67a or 72a, respectively, were injected into the tail veins as single bolus injections. […] At 0.5 h, 2 h, 5 h and 24 h postinjection times the animals were sacrificed; except in the case of the phosphate phosphonate derivative 31 were the animals were sacrificed 0.25 h, 2 h, 5 h and 24 h postinjection. Randomly selected groups of three animals were used at each time point. The whole animals were weighed and dissected. The excised organs, i.e. femur, skull, blood, heart, lung, liver, kidney, spleen, stomach, large intestine and small intestine, were weighed separately prior to counting.
(§3) Radioactivity measurements of the labelled compounds were carried out with a liquid scintillation counter (Beckman LS 6500, Beckman Instruments, USA) or with a Capintec CRC-7R radioisotope calibrator (Capintec, USA). The radioactivity level of the excised organs was measured with an automated gamma counter (LKB Wallac 1282, Turku, Finland).

OHS cells = experiment: Antitumour efficacy, OHS osteogenic sarcoma model in nude rats; assay type: in vivo; settings: for Mean disease-free latency: 7 days after cell inoculation
Procedure: (§1) Initially, a skeletal metastases model in nude rats, including the human breast carcinoma line MT-1 (1) was tested. A total of 1×10^6 cells were injected into the left vintricula of the heart (L.V.) of 4-5 weeks old nude rats (2). A primary osteogenic sarcoma model in nude rats, was established by intratibial (i.t.) injection of 1×10^6 OHS cells (3-5). A total of 20 animals, allocated in four groups (n=5 for each group) were used for both cell lines. The animals inoculated with MT-1 cells were treated with 200, 300 or 400 MBq/kg of 46a seven days after cell injection. The animals inoculated with OHS cells were treated with 100, 200 or 400 MBq/kg of 46a seven days after cell inoculation. The control groups (MT-1 and OHS) received saline only. Doses were corrected for the actual weight of each animal and administered by single bolus tail vein injections.
The OHS model had been established by intratibial injections of the osteogenic sarcoma (OHS) cell line in immuno-deficient rats.^86,87 Eventually, the rats develop palpable tibial tumours. At the time of treatment (7 days after cell inoculation) the tumours fill approximately 50-60% of the tibial cavity and have a substantial osteoid production closely resembling that of osteoblastic osteosarcomas in the clinic.^88 The model has been used to evaluate the antitumour efficacy of several drugs currently used in the treatment of bone-related cancer.
Disease-free latency was defined as the period between tumour cell inoculation and the time the diameter of the tumour-injected tibia had increased by 2-3 mm compared with that of the non-injected contralateral leg.

[2] = Biodistribution of HPLC-purified and nonpurified (crude) compound in nude rats; assay type: in vivo, congenitally athymic nude rats (Han rnu/rnu Rowett)
Procedure: Nude/nude rats with a body weight averaging 60 g were used in the biodistribution experiments. The aim of the study was to compare crude 3h with HPLC-purified 3h. The term “crude compound” refers to the diluted and neutralised labelling reaction mixture described hereinbefore. The compounds were administrated by tail vein injections of 200 μl for each animal, using three animals for each sample. 24 h after injection the animals were killed by a lethal injection and the tissue distribution determined.
Rats. […] At 24 h postinjection the animals were sacrificed, weighed and dissected.
To further evaluate the hydroxybisphosphonate 46a, biodistribution of this compound was obtained in rats. The goal of this experiment was to find whether there was a difference in the properties of the HPLC-purified compound as compared with a nonpurified sample.

MT-1 cells [3] = experiment: Bone lesions to healthy bone ratio in rat inoculated with MT-1 cells (scintigraphy, Bioscope); assay type: in vivo; settings: 15 MBq i.v. seven days after MT-1 inoculation, 24 h
Procedure: Tumour lesion to healthy bone ratio. A rat weighing 114 g was given a single bolus tail vein injection of 15 MBq (500 μl) of 46a seven days after inoculation with 1×10^6 MT-1 cells. The animal was sacrificed 24 h postinjection. The whole animal was then placed under a gamma camera and images were obtained. The spine was then excised and cut into slices of 10 μm. The slices were molded in Epon and images were obtained with a beta camera.
A prototype real time autoradiography system (Bioscope 3225, IDEAS, Høvik, Norway) consisting of a double sided multiple strip silicon detector was used to obtain images of bone slices.
In order to obtain ratios of bone cancer lesions to healthy bone, the hydroxybisphosphonate 46a was injected into a rat inoculated with MT-1 cells (a human breast cancer cell line, see section 4.2.3.1.) seven days earlier. The animal was sacrified 24 h postinjection and whole body images were obtained by means of scintigraphy. […] The radioactivity distributions in slices of the spine were then measured with a device (Bioscope) for real time autoradiography. The resulting images were automatically aligned by means of an image correlation method (Personal communication Arne Skretting, The Norwegian Radium Hospital, Oslo). Finally, the aligned images were added in layers to reconstruct the whole spine. […] Abnormal uptake was detected in one slice only. […]

MT-1 cells [4] = experiment: Antitumour efficacy, MT-1 skeletal metastases model in nude rats; assay type: in vivo; settings: for Mean survival time: 7 days after cell injection
Procedure: as §1
The MT-1 model simulates formation of mixed lytic/sclerotic skeletal metastasis in breast cancer patients. The model had recently been established in immuno-deficient rats by injections into the left ventricula (L.V.) of the oestrogen receptor-negative human breast cancer (MT-1) cell line.^83,84,85 In this model, large masses of tumour cells build up in the spine, replacing the normal bone marrow and eroding the bone part of the spine.
Treatment with the hydroxybisphosphonate 46a was initiated 7 days after tumour cell inoculation, while the control group received saline only. […] In comparison, the mean survival times for the animals treated with 46a were 27.5 days (range 23-29, one survivor), 29.0 days (range 27-33) and 30.6 days (range 29-33) with increasing dose of 200, 300 and 400 MBq/kg, respectively (n=5 in each group).

[5] = mouse, in vivo
Procedure: as §2, §3

[6] = 24 h postinjection, i.v., listed as 3h
[7] = all animals treated (100, 200, 400 MBq/kg)

Structure (SMILES): O=P(O)(O)C(O)(Cc1cccc([131I])c1)P(=O)(O)O [46a, 1-hydroxy(m-[^131I and ^125I]-iodophenyl)-ethylidene-1,1-bisphosphonic acid]
- Uptake in femur ([1]; 0.5 h (30 min) postinjection, i.v.): 45.03±6.75 % ID/g
- Uptake in femur ([1]; 0.5 h (30 min) postinjection, i.v., listed as 3h): 45±7 % ID/g
- Activity in blood ([1]; 0.5 h postinjection, i.v.): 15.92±12.75 % ID/g
- Uptake in kidneys ([1]; 0.5 h postinjection, i.v.): 18.64±1.78 % ID/g
- Uptake in skull ([1]; 0.5 h postinjection, i.v.): 24.61±3.85 % ID/g
- Uptake in femur ([1]; 2 h postinjection (peak), i.v.): 45.54±4.10 % ID/g
- Uptake in femur ([1]; 2 h postinjection (peak), i.v., listed as 3h): 46±4 % ID/g
- Activity in blood ([1]; 2 h postinjection, i.v.): 1.36±0.25 % ID/g
- Femur to soft tissue ratio ([1]; 24 h, soft tissue with highest uptake): ≥ 7
- Uptake in femur ([1]; 24 h postinjection, i.v.): 37.79±11.78 % ID/g
- Uptake in kidneys ([1]; 24 h postinjection, i.v.): 5.16±2.00 % ID/g
- Uptake in liver ([1]; 24 h postinjection, i.v.): 2.27±0.69 % ID/g
- Uptake in femur [1, 6]: 38±12 % ID/g
- Uptake in kidneys [1, 6]: 5±2 % ID/g
- Uptake in liver [1, 6]: 2±0.7 % ID/g
- Uptake in femur expressed as % gram dose per gram tissue ([1]; balb/c mice, 20-25 g, 2 h, maximum uptake, listed as 1): 1025 (balb/c mice, 20-25 g, 2 h), % gram dose per gram tissue
- Uptake in stomach ([1]; balb/c mice, 20-25 g, 24 h): 0.13 ± 0.01 % ID/g
- Uptake in the thyroid ([1]; balb/c mice, 20-25 g, 24 h): 0.06 ± 0.04 % injected dose/organ
- Ratio between uptake in femur and kidney ([1]; balb/c mice, 20-25 g, 24 h, listed as 1): 7.3 (femur/kidney, balb/c mice, 20-25 g,
- Ratio between uptake in femur and kidney ([1]; balb/c mice, 20-25 g, 24 h, listed as 3h): 7
- In vivo stability relative to compound 2 and 3 ([1]; from thyroid and stomach uptake, Table 3): about 7 times
- Discomfort or toxicity after administration of samples ([1]; single bolus tail vein injection, 100 μl): No sign of discomfort or toxicity was observed
- Disease-free latency, range (OHS cells; 100 MBq/kg): 18 to 32 days
- Mean disease-free latency (OHS cells; 100 MBq/kg, n=5): 27 days
- Survivors (OHS cells; 100 MBq/kg, n=5): one survivor
- Disease-free latency, range (OHS cells; 200 MBq/kg): 26 to 36 days
- Mean disease-free latency (OHS cells; 200 MBq/kg, n=5): 30 days
- Survivors (OHS cells; 200 MBq/kg, n=5): one survivor
- Disease-free latency, range (OHS cells; 400 MBq/kg): 26 to 36 days
- Mean disease-free latency (OHS cells; 400 MBq/kg, n=5): 31 days
- Long time survivors (>100 days) (OHS cells; [7]): 33%
- Long time survivors (>100 days), animals (OHS cells; [7]): 5 of 15
- Long time survivors (OHS cells; highest dose, 400 MBq/kg, n=5): 60%
- Long time survivors (animals) (OHS cells; highest dose, 400 MBq/kg, n=5): 3 and 3 of 5
- Long time survivors (animals) (OHS cells; highest dose, 400 MBq/kg, n=5, listed as 1): 3 of 5
- P of increase in disease-free latency time compared to the other groups (OHS cells; highest dose, Kruskal-Wallis test): < 05
- Lifetime after treatment (OHS cells; osteosarcoma model): dramatic increase in lifetime
- Bone affinity of purified compound versus crude product ([2]; 24 h): 3 fold
- Femur uptake ([2]; HPLC purified, nude/nude rats 60 g, 24 h): 1020 % g dose/g
- Femur to soft tissue ratio ([2]; HPLC-purified sample, 24 h): > 45
- Uptake in femur ([2]; HPLC-purified sample, 24 h): 16.44±1.96 % ID/g
- Uptake in kidneys ([2]; HPLC-purified sample, 24 h): 0.36±0.03 % ID/g
- Uptake in skull ([2]; HPLC-purified sample, 24 h): 5.84±0.35 % ID/g
- Uptake in femur expressed as % gram dose per gram tissue ([2]; Rowett rats, 60 g, 24 h): 986 (Rowett rats, 60 g, 24 h) % gram dose per gram tissue
- Uptake in stomach ([2]; Rowett rats, 60 g, 24 h): 0.05 ± 0.01 % ID/g
- Uptake in the thyroid ([2]; Rowett rats, 60 g, 24 h): 0.02 ± 0.01 % injected dose/organ
- Ratio between uptake in femur and kidney ([2]; Rowett rats, 60 g, 24 h, HPLC purified, listed as 1): 24 h) and 45.7 (femur/kidney,
- Ratio between uptake in femur and kidney ([2]; Rowett rats, 60 g, 24 h, HPLC purified, listed as 3h): above 45
- Femur to kidney ratio ([2]; nonpurified sample): 14
- Femur to skull ratio ([2]; nonpurified sample): ~7
- Uptake in the thyroid ([2]; nonpurified sample): 0.03±0.01 % of the total injected radioactivity
- Uptake in femur ([2]; nonpurified sample, 24 h): 5.28±1.10 % ID/g
- Bone cancer lesions to healthy bone ratio (MT-1 cells [3]): inconclusive
- Survival time, range (MT-1 cells [4]; 200 MBq/kg): 23 to 29 days
- Mean survival time (MT-1 cells [4]; 200 MBq/kg, n=5): 27.5 days
- Long time survivors (MT-1 cells [4]; 200 MBq/kg, n=5): one survivor
- Survival time, range (MT-1 cells [4]; 300 MBq/kg): 27 to 33 days
- Mean survival time (MT-1 cells [4]; 300 MBq/kg, n=5): 29.0 days
- Survival time, range (MT-1 cells [4]; 400 MBq/kg): 29 to 33 days
- Mean survival time (MT-1 cells [4]; 400 MBq/kg, n=5): 30.6 days
- p of increased survival time (lifetime) compared with controls (MT-1 cells [4]; all dose levels (200, 300, 400 MBq/kg), Wilcoxon rank-sum test, long time survivors excluded): < 0.05
- Lifetime after treatment (MT-1 cells [4]; breast cancer model): increased lifetime
- Bone-seeking properties [5]: potent bone-seekers
